In US12577245B2, “Sulfonyl benzamide derivatives as Bcl-2 inhibitors” (ASCENTAGE PHARMA (SUZHOU) CO., LTD., priority 2021, dated 2026) one finds IC50 data, which are given here for 6 compounds.

Assay [1] concerns RS4; 11Bcl-2-G101V cells. Briefly: CellTiter-Glo (CTG) cell viability assay in RS4;11-Bcl-2-G101V cells. It counts as cell-based. The settings on record: 72 h, 10% FBS, 3 days. The method, then:
RS4; 11Bcl-2-G101V, RS4; 11Bcl-2-D103E, RS4; 11Bcl-2-V156D and RS4; 11Bcl-2-G101V-D103E cells were obtained from Cobioer Biosciences. Cells were maintained in the RPMI-1640 medium with 10% FBS, 1% P/S and puromycin (1 μg/mL) at 37° C. and an atmosphere of 5% CO2.
• The effect of representative Compounds of the Disclosure on cell viability was determined using CellTiter-Glo® (CTG) luminescent cell viability assay (Promega, USA) according to the manufacturer's instructions. 95 μL of cell suspension (10000 cells/well) in culture medium were seeded into 96-well plates and cultured 4 hours. Each tested compound was serially diluted in blank culture medium, and 5 μL of the compound dilution was added to the corresponding well of the cell plate. After the addition of the tested compound, the cells were incubated at 37° C. in an atmosphere of 5% CO2 for 3 days. At the end of 3 days, 30 μL of CTG solution was added to each well of the plate and mix contents for 2 minutes on an orbital shaker. Allow the plate to incubate at room temperature for 15 mins to stabilize signal and record RLU on the Biotek plate reader. The readings were normalized to the vehicle cells, and the IC50 was calculated using GraphPad Prism 8 software.

Assay [2] deals with Bcl-2 WT (Homo sapiens, UniProt P10415). In words: Bcl-2 WT inhibition, fluorescence polarization (Flu-BIM tracer) binding assay. The settings on record: FP; 20 nM Bcl2, 5 nM Flu-BIM, 1 h incubation; read-out: Bcl-2 w.t. (FP). A general note: Fluorescence polarisation rises when a labelled molecule tumbles more slowly, as on binding a larger partner.
Bcl-2 WT, sequence (P10415 whole entry): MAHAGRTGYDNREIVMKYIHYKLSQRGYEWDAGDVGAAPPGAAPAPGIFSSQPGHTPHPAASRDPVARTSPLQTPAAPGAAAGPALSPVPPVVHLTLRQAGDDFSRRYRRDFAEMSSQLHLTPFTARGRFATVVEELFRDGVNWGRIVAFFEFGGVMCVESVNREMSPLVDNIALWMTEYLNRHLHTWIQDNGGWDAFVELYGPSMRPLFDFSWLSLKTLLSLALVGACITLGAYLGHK
Assay [3] deals with MV-4-11 cells. In words: CCK-8 cell viability assay in MV-4-11 cells. It counts as cell-based. The settings on record: Homo sapiens, MV4-11, 72 h, 10% FBS, 3 days. As to the method: MV-4-11 cells were obtained from University of Michigan. Cells were maintained in the RPMI-1640 medium with 10% FBS and 1% P/S at 37° C. and an atmosphere of 5% CO2.
• The effect of representative Compounds of the Disclosure on cell viability was determined using Cell Counting Kit-8 (CCK-8) assay (Shanghai Life iLab Biotech) according to the manufacturer's instructions. Each tested compound was serially diluted in culture medium, and 100 μL of the compound dilution was added to the corresponding well of the cell plate. 100 μL of MV-4-11 cell suspension (20000 cells/well) in culture medium were seeded into 96-well plates. The cells were incubated at 37° C. in an atmosphere of 5% CO2 for 3 days. At the end of 3 days, 20 μL of CCK-8 solution was added to each well of the plate and incubated for 1-4 hours. The plates were read at 450 nm on the Biotek plate reader. The readings were normalized to the vehicle cells, and the IC50 was calculated using GraphPad Prism 8 software.
In general terms: Tetrazolium dyes change colour on reduction, which living cells bring about.

Regarding `CC1(C)CCC(CN2CCN(c3ccc(C(=O)NS(=O)(=O)c4ccc(NC[C@H]5COCCO5)c([N+](=O)[O-])c4)c(Oc4cnc5[nH]ccc5c4)c3)CC2)=C(c2cc(-c3ccc(C(F)(F)F)cc3)cs2)C1` [Example 40, (S)—N-((4-(((1,4-dioxan-2-yl)methyl)amino)-3-nitrophenyl)sulfonyl)-2-((1H-pyrrolo[2,3-b]pyridin-5-yl)oxy)-4-(4-((4,4-dimethyl-2-(4-(4-(trifluoromethyl)phenyl)thiophen-2-yl)cyclohex-1-en-1-yl)methyl)piperazin-1-yl)benzamide], the figures for the IC50 in assay [1], in assay [2] and in assay [3] were 3550 nM, 40.2 nM and 45 nM, respectively.

For the compound `CC1(C)CCC(CN2CCN(c3ccc(C(=O)NS(=O)(=O)c4ccc(NC[C@H]5CC[C@@](C)(O)CC5)c([N+](=O)[O-])c4)c(Oc4cnc5[nH]ccc5c4)c3)CC2)=C(c2cc(-c3ccc(F)cc3)cs2)C1` [Example 36, 2-((1H-pyrrolo[2,3-b]pyridin-5-yl)oxy)-4-(4-((2-(4-(4-fluorophenyl)thiophen-2-yl)-4,4-dimethylcyclohex-1-en-1-yl)methyl)piperazin-1-yl)-N-((4-((((1s,4s)-4-hydroxy-4-methylcyclohexyl)methyl)amino)-3-nitrophenyl)sulfonyl)benzamide], the IC50 in assay [1] was 570 nM; in assay [2] it was 36.3 nM; in assay [3], 36 nM.

Take `CC1(C)CCC(CN2CCN(c3ccc(C(=O)NS(=O)(=O)c4ccc(NC[C@H]5COCCO5)c([N+](=O)[O-])c4)c(Oc4cnc5[nH]ccc5c4)c3)CC2)=C(c2cc(-c3c(F)cc(C(C)(C)O)cc3F)cs2)C1` [Example 64, (S)—N-((4-(((1,4-dioxan-2-yl)methyl)amino)-3-nitrophenyl)sulfonyl)-2-((1H-pyrrolo[2,3-b]pyridin-5-yl)oxy)-4-(4-((2-(4-(2,6-difluoro-4-(2-hydroxypropan-2-yl)phenyl)thiophen-2-yl)-4,4-dimethylcyclohex-1-en-1-yl)methyl)piperazin-1-yl)benzamide]: the IC50 in assay [1] turned out to be 30 nM; in assay [2], 16.4 nM; in assay [3], 7 nM.

Regarding `CC1(C)CCC(CN2CCN(c3ccc(C(=O)NS(=O)(=O)c4ccc(NC[C@H]5COCCO5)c([N+](=O)[O-])c4)c(Oc4cnc5[nH]ccc5c4)c3)CC2)=C(c2cc(-c3ccc(F)cn3)cs2)C1` [Example 52, (S)—N-((4-(((1,4-dioxan-2-yl)methyl)amino)-3-nitrophenyl)sulfonyl)-2-((1H-pyrrolo[2,3-b]pyridin-5-yl)oxy)-4-(4-((2-(4-(5-fluoropyridin-2-yl)thiophen-2-yl)-4,4-dimethylcyclohex-1-en-1-yl)methyl)piperazin-1-yl)benzamide], the IC50 was found to be 4990 nM in assay [1] and 296 nM in assay [3].

For `Cc1ccsc1C1=C(CN2CCN(c3ccc(C(=O)NS(=O)(=O)c4ccc(NCC5CCOCC5)c([N+](=O)[O-])c4)c(Oc4cnc5[nH]ccc5c4)c3)CC2)CCC(C)(C)C1` [Example 4, 2-((1H-pyrrolo[2,3-b]pyridin-5-yl)oxy)-4-(4-((4,4-dimethyl-2-(3-methylthiophen-2-yl)cyclohex-1-en-1-yl)methyl)piperazin-1-yl)-N-((3-nitro-4-(((tetrahydro-2H-pyran-4-yl)methyl)amino)phenyl)sulfonyl)benzamide], the IC50 in assay [1] amounted to 3250 nM; in assay [3] it was 54 nM.

`CC1(C)CCC(CN2CCN(c3ccc(C(=O)NS(=O)(=O)c4ccc(NC[C@H]5CC[C@](C)(O)CC5)c([N+](=O)[O-])c4)c(Oc4cnc5[nH]ccc5c4)c3)CC2)=C(c2cc(-c3c(F)cc(F)cc3F)cs2)C1` [Example 47, 2-((1H-pyrrolo[2,3-b]pyridin-5-yl)oxy)-4-(4-((4,4-dimethyl-2-(4-(2,4,6-trifluorophenyl)thiophen-2-yl)cyclohex-1-en-1-yl)methyl)piperazin-1-yl)-N-((4-((((1r,4r)-4-hydroxy-4-methylcyclohexyl)methyl)amino)-3-nitrophenyl)sulfonyl)benzamide]: the IC50 in assay [1] came out at 190 nM; in assay [3] it was 5 nM.
